Test results: patent US12285407B2, “Bis-indolylmethane derivatives and uses thereof” (The University of The West Indies, priority 2018, dated 2025)
Where two headings read alike, the source gives them in different places.

Key:
[1] = test system: Klebsiella pneumoniae; assay: Adjuvant broth microdilution (antibiotic MIC with SP-BIM at 50 μg/mL); format: cell-based; details: antibiotic alone
[2] = test system: Streptococcus pneumoniae; assay: Checkerboard synergy (FICI) of antibiotics with SP-BIM; format: cell-based; details: for MIC: 24 h, antibiotic alone, read-out: MIC antibiotic only
[3] = test system: Enterococcus faecium; assay: as above; format: cell-based; details: Enterococcus faecium, Enterococcus faecium; for MIC: 24 h, antibiotic alone, read-out: MIC antibiotic only
[4] = test system: Escherichia coli; assay: as above; design: MIC SP-BIM 13 only / MIC in combination: Antibiotic: unit not given beside the values; details: for MIC: 24 h
[5] = test system: Bacillus cereus; assay: as above; format: cell-based; details: for MIC: 24 h, antibiotic alone, read-out: MIC antibiotic only
[6] = test system: Candida albicans; assay: as above; design: MIC SP-BIM 13 only / MIC in combination: Antibiotic / MIC antibiotic only: unit not given beside the values
[7] = test system: Enterococcus faecalis; assay: Adjuvant broth microdilution (antibiotic MIC with SP-BIM at 50 μg/mL); format: cell-based; details: antibiotic alone
[8] = test system: MRSA; assay: as above; format: cell-based, Staphylococcus aureus; details: antibiotic alone
[9] = test system: Escherichia coli O157:H7; format: cell-based; details: antibiotic alone, no SP-BIM
[10] = test system: Bacillus cereus; assay: Adjuvant broth microdilution (antibiotic MIC with SP-BIM at 50 μg/mL); format: cell-based; details: antibiotic alone, Table 9
[11] = test system: Staphylococcus aureus; assay: Checkerboard synergy (FICI) of antibiotics with SP-BIM; format: cell-based; details: Staphylococcus aureus, Staphylococcus aureus; for MIC: 24 h, antibiotic alone, read-out: MIC antibiotic only
[12] = test system: Klebsiella pneumoniae; assay: as above; format: cell-based; details: for MIC: 24 h, antibiotic alone, read-out: MIC antibiotic only
[13] = test system: Escherichia coli; assay: microbe, parasite or virus in culture; format: cell-based; details: antibiotic alone, Table 6, read-out: MIC of antibiotic, No compound
[14] = test system: Streptococcus pneumoniae; assay: Adjuvant broth microdilution (antibiotic MIC with SP-BIM at 50 μg/mL); format: cell-based; details: Streptococcus pneumoniae; Streptococcus pneumonia; antibiotic alone; Table 5; read-out: MIC of antibiotic, No compound
[15] = Streptococcus pneumonia (title: Streptococcus pyogenes), antibiotic + SP-BIM 9
[16] = Streptococcus pneumoniae, antibiotic + SP-BIM 13
[17] = SP-BIM 13 in combination with the labelled antibiotic
[18] = antibiotic in combination with SP-BIM 13
[19] = MIC of the antibiotic in combination with SP-BIM 13
[20] = SP-BIM 9 in combination with the labelled antibiotic
[21] = antibiotic in combination with SP-BIM 9

**Q.** Which results are given for `C[C@H]1c2cccc(O)c2C(=O)C2=C(O)[C@]3(O)C(=O)C(C(N)=O)=C(O)[C@@H](N(C)C)[C@@H]3[C@@H](O)[C@@H]21` [Doxycycline, doxycycline]?
**A.** MIC of antibiotic, No Compound ([1]; Klebsiella pneumonia, no SP-BIM): 8 µg/mL; MIC ([1]; Klebsiella pneumoniae, Table 7, read-out: MIC of antibiotic, No compound): 32 µg/mL; FIC of SP-BIM 9 ([2]; Streptococcus pneumonia (title: Streptococcus pyogenes), SP-BIM 9 in combination with the labelled antibiotic): 0.50; Interpretation [2, 15]: Additive (Additive: FICI>0.5-1.0); Σ FIC [2, 15]: <0.75; MIC in combination, Antibiotic ([2]; Streptococcus pneumonia (title: Streptococcus pyogenes), antibiotic in combination with SP-BIM 9): 4 µg/mL; FIC of antibiotic ([2]; Streptococcus pneumonia (title: Streptococcus pyogenes), in combination with SP-BIM 9): 0.25; MIC ([2]; Streptococcus pneumoniae, Streptococcus pneumonia (title: Streptococcus pyogenes), SP-BIM 9 checkerboard): 16 µg/mL; MIC ([2]; Streptococcus pneumoniae, Streptococcus pneumoniae, SP-BIM 13 checkerboard): 16 µg/mL; FIC of SP-BIM 13 ([2]; Streptococcus pneumoniae, SP-BIM 13 in combination with the labelled antibiotic): 0.3; Interpretation [2, 16]: Synergy (Synergy: FICI≤0.5); Σ FIC [2, 16]: <0.3; MIC in combination, Antibiotic ([2]; Streptococcus pneumoniae, antibiotic in combination with SP-BIM 13): 1 µg/mL; FIC of antibiotic ([2]; Streptococcus pneumoniae, in combination with SP-BIM 13): 0.1; MIC ([3]; SP-BIM 9 checkerboard): 8 µg/mL; MIC ([3]; SP-BIM 13 checkerboard): 8 µg/mL; FIC of SP-BIM 13 [3, 17]: 0.5; Interpretation ([3]; antibiotic + SP-BIM 13): Additive (Additive: FICI>0.5-1.0); Σ FIC ([3]; antibiotic + SP-BIM 13): 0.6; MIC in combination, Antibiotic [3, 18]: 1 µg/mL; FIC of antibiotic ([3]; in combination with SP-BIM 13): 0.1; MIC ([4]; read-out: MIC antibiotic only, Escherichia coli, antibiotic alone): 16 µg/mL; MIC ([4]; read-out: MIC antibiotic only, Escherichia coli, antibiotic alone, SP-BIM 9 checkerboard): 16 µg/mL; MIC in combination: Antibiotic [4, 19]: 2; FIC of SP-BIM 9 [4, 20]: 0.5; FIC of SP-BIM 13 [4, 17]: 0.3; Interpretation ([4]; antibiotic + SP-BIM 9): Synergy (Synergy: FICI≤0.5); Σ FIC ([4]; antibiotic + SP-BIM 9): <1.0; Interpretation ([4]; antibiotic + SP-BIM 13): Synergy (Synergy: FICI≤0.5); Σ FIC ([4]; antibiotic + SP-BIM 13): <0.4; MIC in combination, Antibiotic [4, 21]: 8 µg/mL; FIC of antibiotic ([4]; combination with SP-BIM 13): 0.1; FIC of antibiotic ([4]; in combination with SP-BIM 9): 0.5; MIC ([5]; SP-BIM 9 checkerboard): 4 µg/mL; MIC ([5]; SP-BIM 13 checkerboard): 4 µg/mL; MIC in combination, SP-BIM 9 ([5]; SP-BIM 9 concentration in combination with the labelled antibiotic): 125 µg/mL; FIC of SP-BIM 9 [5, 20]: 0.5; FIC of SP-BIM 13 [5, 17]: 0.3; Interpretation ([5]; antibiotic + SP-BIM 9): Synergy (Synergy: FICI≤0.5); Σ FIC ([5]; antibiotic + SP-BIM 9): <0.6; Interpretation ([5]; antibiotic + SP-BIM 13): Synergy (Synergy: FICI≤0.5); Σ FIC ([5]; antibiotic + SP-BIM 13): 0.5; MIC in combination, Antibiotic [5, 21]: 0.5 µg/mL; MIC in combination, Antibiotic [5, 18]: 1 µg/mL; FIC of antibiotic ([5]; in combination with SP-BIM 9): 0.125; FIC of antibiotic ([5]; in combination with SP-BIM 13): 0.25; MIC ([6]; 24 h, read-out: MIC antibiotic only): 16 µg/mL; MIC in combination: Antibiotic [6, 19]: 2; FIC of SP-BIM 13 [6, 17]: 0.5; Interpretation ([6]; antibiotic + SP-BIM 13): Additive (Additive: FICI>0.5-1.0); Σ FIC ([6]; antibiotic + SP-BIM 13): <0.6; FIC of antibiotic ([6]; combination with SP-BIM 13): 0.1; MIC of antibiotic, No Compound [7]: 0.5 µg/mL; MIC ([8]; Staphylococcus aureus, Table 4, read-out: MIC of antibiotic, No compound): 8 µg/mL; MIC of antibiotic, No Compound ([8]; Table 8 (series SP-BIMs 21-29)): <0.5 µg/mL; MIC of antibiotic, No Compound [9]: 2 µg/mL; MIC of antibiotic, No Compound [10]: <0.5 µg/mL; MIC ([11]; SP-BIM 9 checkerboard): 8 µg/mL; MIC ([11]; SP-BIM 13 checkerboard): 8 µg/mL; FIC of SP-BIM 9 [11, 20]: 0.13; FIC of SP-BIM 13 [11, 17]: 0.3; Interpretation ([11]; antibiotic + SP-BIM 9): Synergy (Synergy: FICI≤0.5); Σ FIC ([11]; antibiotic + SP-BIM 9): <0.38; Interpretation ([11]; antibiotic + SP-BIM 13): Synergy (Synergy: FICI≤0.5); Σ FIC ([11]; antibiotic + SP-BIM 13): 0.4; MIC in combination, Antibiotic [11, 21]: 2.0 µg/mL; MIC in combination, Antibiotic [11, 18]: 1 µg/mL; FIC of antibiotic ([11]; in combination with SP-BIM 9): 0.25; FIC of antibiotic ([11]; in combination with SP-BIM 13): 0.1; MIC ([12]; SP-BIM 9 checkerboard): 16 µg/mL; MIC ([12]; SP-BIM 13 checkerboard): 16 µg/mL; FIC of SP-BIM 9 [12, 20]: 0.5; FIC of SP-BIM 13 [12, 17]: 0.3; Interpretation ([12]; antibiotic + SP-BIM 9): Additive (Additive: FICI>0.5-1.0); Σ FIC ([12]; antibiotic + SP-BIM 9): <0.8; Interpretation ([12]; antibiotic + SP-BIM 13): Synergy (Synergy: FICI≤0.5); Σ FIC ([12]; antibiotic + SP-BIM 13): <0.4; MIC in combination, Antibiotic [12, 21]: 4 µg/mL; MIC in combination, Antibiotic [12, 18]: 2 µg/mL; FIC of antibiotic ([12]; in combination with SP-BIM 9): 0.25; FIC of antibiotic ([12]; in combination with SP-BIM 13): 0.1; MIC [13]: 63 µg/mL; MIC [14]: 63 µg/mL
